What was measured:
Format in all cases: cell-based
PPAR-γ = assay: Effect of inhibiting expression of PPAR-γ by Western blot in IGF-1-treated human sebocytes; conditions: human sebocytes pretreated with IGF-1 (50 ng/ml), sample 20 μM, 24 hours, FIG. 1
Description: 1. Effect of Inhibiting Expression of PPAR-γ by Western Blot
In the present invention, 1.5×10^5 (1 mL/well) of human sebocytes were adhered on a 12-well plate containing a Dulbecco's modified eagle medium (DMEM)/F12 (1:1) containing 10% fetal bovine serum (FBS). After culturing for 24 hours, cells were collected after 24 hours from each sample of a control group (1 μM) in which the medium was replaced with a serum-free medium and previously treated with IGF-1 (50 ng/ml) and an experimental group in which the control group was treated with Compound 1 of Example 1 (20 μM). In addition, in the present invention, the control means a sample which was not treated with IGF-1, and the comparative group means a sample in which the control group was treated with retinoic acid (20 μM). Thereafter, expression of PPAR-γ protein which is a representative lipid synthetic transcription factor of sebocytes was analyzed by the Western blot, for each of these samples.

human sebocytes [1] = assay: Effect of inhibiting sebum secretion, oil red O staining of IGF-1-treated human sebocytes
Description: 2. Effect of Inhibiting Sebum Secretion
(§1) 1×10^5 (1 mL/well) of human sebocytes were adhered on a 12-well plate containing a Dulbecco's modified eagle medium (DMEM)/F12 (1:1) containing 10% fetal bovine serum (FBS).
In FIG. 2, each sample of a control group (1 μM) which was previously treated with IGF-1 (50 ng/ml) after culturing for 24 hours and an experimental group in which the control group was treated with Compound 1 of Example 1 (20 μM) was stained after 24 hours with a 0.5% oil red O solution for 1 hour and treated with 100% isopropanol, and an absorbance was measured by a 500 nm ELISA reader.

human sebocytes [2] = assay: Nile red staining of human sebocytes, microscopic image; conditions: Nile red 1 ug/ml for 30 minutes, FIG. 3
Description: as §1

CCCCCCCC(=O)C(CCCCCC)C(=O)N[C@@H](C)C(=O)OC (stereo partly shown) [Compound 1, methyl (2-hexyl-3-oxodecanoyl)alaninate]
inhibition of PPAR-γ activation/expression (Western blot) (PPAR-γ): effect of inhibiting PPAR-γ activity is remarkable | sebum production amount (fat content in sebocytes, oil red O, absorbance 500 nm) (human sebocytes [1]; human sebocytes pretreated with IGF-1 (50 ng/ml), 20 μM, 24 hours, FIG. 2): remarkably decreased | dependence of the sebum production decrease on treatment concentration (human sebocytes [1]; human sebocytes pretreated with IGF-1, oil red O, each concentration): significantly increased depending on the treatment concentration | differentiation of fat cells (Nile red staining, microscopic image) (human sebocytes [2]): differentiation of fat cells is more effectively derived
